Like-named read-outs stand apart in the source and are kept apart here. Starred links: 1 amine or outer side, 2 acyl side, 3 side chain; linkers in the order of their positions; H or OH if unused. Non-standard residues stand in square brackets, D forms with d. Residues, ends and D or L forms follow the SMILES beside them. Groups on a side chain read outwards from the residue. *: point of attachment. C18 diacid = O=C(O)CCCCCCCCCCCCCCCCC(=O)*; γGlu = O=C(O)[C@H](CCC(=O)[*:2])N[*:1]; Stearoyl = CCCCCCCCCCCCCCCCCC(=O)*; Palmitoyl = CCCCCCCCCCCCCCCC(=O)*; αMeF = C[C@](N)(Cc1ccccc1)C(=O)O; PEG2 = NCCOCCOCCC(=O)O; AEEA = NCCOCCOCC(=O)O; Aib = CC(C)(N)C(=O)O
Columns and labels:
[1] = target: human GLP-1 receptor (hGLP-1R) (Homo sapiens, UniProt P43220); assay: cAMP production (HTRF) in CHO cells expressing hGLP-1R; assay type: cell-based; design: expressed in transfected cells; conditions: for % Relative Potency Ratio: % GLP-1R activity relative to GLP-1 / % GlucR activity relative to glucagon; for EC50: Table 7, peptides modified at position 20, cAMP in CHO hGLP-1R cells, geometric mean, read-out: hGLP-1R EC50
Summary of the method: (§1)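 Potency values represent EC50 from 4-parameter logistic curves of HTRF % Delta F signal. Receptor-expressing CHO cells (hGCGR 2×10^5 cells/mL, hGLP-1R 1×10^5 cells/mL) were exposed for 30 min at room temperature before two-step cAMP detection.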

[2] = Mouse acute food intake study; assay type: in vivo; conditions: male C57Bl/6 mice, s.c., cumulative food intake at 24 hr vs vehicle
Method: Male C57Bl/6 mice obtained from Jackson Laboratories or Charles River at 8-9 weeks of age and were housed one per cage in BioDaq (Research Diets) cages. Mice were placed on Alpha Dri bedding, standard chow diet (Envigo, 2018) and given water pouches. Mice were allowed to acclimate for 1-2 weeks. Body weight was measured to ensure appropriate acclimation. After acclimation, mice were sham dosed a minimum of 2 times prior to initiation of food intake study. On study day, mice were placed in clean cage bottoms, weighed, and fasted for 6-8 hours. Mice were sorted into groups based on average 24-hour food intake data and body weight. 1-2 hours prior to lights out, mice were dosed subcutaneously with one vehicle or test peptide dissolved in an appropriate vehicle at 5 mL/kg. Mice were left undisturbed and allowed access to food and water for 48 hours. Automated food intake was monitored in the BioDaq system was monitored during this time. Discrete food intake data was exported into MS Excel from which cumulative food intake data was generated and analyzed.

[3] = target: human glucagon receptor (hGCGR) (Homo sapiens, UniProt P47871); assay: cAMP production (HTRF) in CHO cells expressing hGCGR; assay type: cell-based; design: expressed in transfected cells; conditions: cAMP in CHO hGCGR cells, geometric mean, read-out: hGluc-R EC50
Summary of the method: as §1

[4] = Table 6, peptides modified at position 17
[5] = Table 7, peptides modified at position 20

Chain of human glucagon receptor (hGCGR) (P47871 26-477): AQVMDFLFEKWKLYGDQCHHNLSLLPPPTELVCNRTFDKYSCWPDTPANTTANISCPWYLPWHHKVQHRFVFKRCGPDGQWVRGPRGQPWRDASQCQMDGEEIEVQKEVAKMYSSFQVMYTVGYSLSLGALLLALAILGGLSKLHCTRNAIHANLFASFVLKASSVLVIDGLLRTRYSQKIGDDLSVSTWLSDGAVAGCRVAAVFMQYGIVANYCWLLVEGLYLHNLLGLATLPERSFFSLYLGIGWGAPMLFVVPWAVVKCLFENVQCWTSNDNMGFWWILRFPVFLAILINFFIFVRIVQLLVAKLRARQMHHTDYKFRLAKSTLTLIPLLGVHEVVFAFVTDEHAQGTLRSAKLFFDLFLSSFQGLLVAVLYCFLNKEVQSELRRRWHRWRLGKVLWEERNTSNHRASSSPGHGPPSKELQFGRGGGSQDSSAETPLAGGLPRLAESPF
Chain of human GLP-1 receptor (hGLP-1R) (P43220 24-463): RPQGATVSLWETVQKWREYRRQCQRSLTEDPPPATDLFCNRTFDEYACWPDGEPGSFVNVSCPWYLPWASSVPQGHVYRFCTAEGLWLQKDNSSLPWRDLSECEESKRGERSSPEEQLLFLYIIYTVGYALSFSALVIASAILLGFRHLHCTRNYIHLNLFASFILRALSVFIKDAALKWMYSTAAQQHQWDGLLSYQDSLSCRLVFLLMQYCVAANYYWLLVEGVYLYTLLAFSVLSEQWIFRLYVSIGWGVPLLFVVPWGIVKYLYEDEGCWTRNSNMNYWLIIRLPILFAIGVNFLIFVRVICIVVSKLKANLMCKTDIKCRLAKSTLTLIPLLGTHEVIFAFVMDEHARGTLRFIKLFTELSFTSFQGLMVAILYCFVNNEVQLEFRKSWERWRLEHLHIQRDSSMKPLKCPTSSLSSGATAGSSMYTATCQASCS

% Relative Potency Ratio ([1]; Table 6) | EC50 [3, 4] [nM] | EC50 [1] [nM] | % Relative Potency Ratio ([1]; Table 7) | EC50 [3, 5] [nM] | Structure (SMILES) | 24 hr % Vehicle Food Intake ([2]; dose 10 nmol/kg) [%] | 24 hr % Vehicle Food Intake ([2]; dose 3 nmol/kg) [%]
157.9 | 0.022 | – | – | – | CCCCCCCCCCCCCCCC(=O)N[C@@H](CCC(=O)N[C@@H](CCC(=O)NCCOCCOCCC(=O)NCCOCCOCCC(=O)NCCCC[C@H](NC(=O)[C@H](CO)NC(=O)[C@H](CC(=O)O)NC(=O)[C@H](CC(C)C)NC(=O)[C@](C)(Cc1ccccc1)NC(=O)[C@H](CCCCN)NC(=O)[C@H](CO)NC(=O)[C@@H](NC(=O)[C@H](CC(=O)O)NC(=O)[C@H](CO)NC(=O)[C@@H](NC(=O)[C@](C)(Cc1ccccc1)NC(=O)[C@H](CO)NC(=O)CNC(=O)[C@H](CCC(N)=O)NC(=O)C(C)(C)NC(=O)[C@@H](N)Cc1c[nH]cn1)[C@@H](C)O)C(C)C)C(=O)N[C@@H](C)C(=O)N[C@@H](C)C(=O)N[C@@H](CCC(N)=O)C(=O)N[C@@H](CC(=O)O)C(=O)N[C@@](C)(Cc1ccccc1)C(=O)N[C@H](C(=O)N[C@@H](CCC(N)=O)C(=O)NC(C)(C)C(=O)N[C@H](C(=O)N[C@@H](C)C(=O)N[C@@H](CC(N)=O)C(N)=O)[C@@H](C)CC)C(C)C)C(=O)O)C(=O)O [Peptide 73] (H-H[Aib]QGS[αMeF]TSDVSK[αMeF]LDSK([PEG2-PEG2-γGlu-γGlu-Palmitoyl])AAQD[αMeF]VQ[Aib]IAN-NH2; N-terminus assumed) | 63.4 | –
69.9 | 0.0301 | – | – | – | CCCCCCCCCCCCCCCCCC(=O)N[C@@H](CCC(=O)N[C@@H](CCC(=O)NCCOCCOCCC(=O)NCCOCCOCCC(=O)NCCCC[C@H](NC(=O)[C@H](CO)NC(=O)[C@H](CC(=O)O)NC(=O)[C@H](CC(C)C)NC(=O)C(C)(C)NC(=O)[C@H](CCCCN)NC(=O)[C@H](CO)NC(=O)[C@@H](NC(=O)[C@H](CC(=O)O)NC(=O)[C@H](CO)NC(=O)[C@@H](NC(=O)[C@](C)(Cc1ccccc1)NC(=O)[C@H](CO)NC(=O)CNC(=O)[C@H](CCC(N)=O)NC(=O)[C@H](CO)NC(=O)[C@@H](N)Cc1c[nH]cn1)[C@@H](C)O)C(C)C)C(=O)N[C@@H](C)C(=O)N[C@@H](C)C(=O)N[C@@H](CCC(N)=O)C(=O)N[C@@H](CC(=O)O)C(=O)N[C@@](C)(Cc1ccccc1)C(=O)N[C@H](C(=O)N[C@@H](CCC(N)=O)C(=O)NC(C)(C)C(=O)N[C@@H](CC(C)C)C(=O)N[C@@H](CCC(=O)O)C(=O)N[C@@H](C)C(=O)NCC(=O)NCC(N)=O)C(C)C)C(=O)O)C(=O)O [Peptide 96] (H-HSQGS[αMeF]TSDVSK[Aib]LDSK([PEG2-PEG2-γGlu-γGlu-Stearoyl])AAQD[αMeF]VQ[Aib]LEAGG-NH2; N-terminus assumed) | 51.9 | –
227.0 | 0.0265 | – | – | – | CCCCCCCCCCCCCCCCCC(=O)N[C@@H](CCC(=O)N[C@@H](CCC(=O)NCCOCCOCCC(=O)NCCOCCOCCC(=O)NCCCC[C@H](NC(=O)[C@H](CO)NC(=O)[C@H](CC(=O)O)NC(=O)[C@H](CC(C)C)NC(=O)C(C)(C)NC(=O)[C@H](CCCCN)NC(=O)[C@H](CO)NC(=O)[C@@H](NC(=O)[C@H](CC(=O)O)NC(=O)[C@H](CO)NC(=O)[C@@H](NC(=O)[C@](C)(Cc1ccccc1)NC(=O)[C@H](CO)NC(=O)CNC(=O)[C@H](CCC(N)=O)NC(=O)C(C)(C)NC(=O)[C@@H](N)Cc1c[nH]cn1)[C@@H](C)O)C(C)C)C(=O)N[C@@H](CCCNC(=N)N)C(=O)N[C@@H](C)C(=O)N[C@@H](CCC(N)=O)C(=O)N[C@@H](CC(=O)O)C(=O)N[C@@](C)(Cc1ccccc1)C(=O)N[C@H](C(=O)N[C@@H](CCC(N)=O)C(=O)NC(C)(C)C(=O)N[C@H](C(=O)N[C@@H](C)C(=O)N[C@@H](CC(N)=O)C(N)=O)[C@@H](C)CC)C(C)C)C(=O)O)C(=O)O [Peptide 102] (H-H[Aib]QGS[αMeF]TSDVSK[Aib]LDSK([PEG2-PEG2-γGlu-γGlu-Stearoyl])RAQD[αMeF]VQ[Aib]IAN-NH2; N-terminus assumed) | 81.9 | –
– | – | 0.0488 | 4.2 | 0.104 | CC[C@H](C)[C@H](NC(=O)[C@H](CO)NC(=O)[C@H](CCC(N)=O)NC(=O)[C@@H](NC(=O)[C@H](Cc1ccccc1)NC(=O)[C@H](CC(=O)O)NC(=O)[C@H](CCCCNC(=O)COCCOCCNC(=O)COCCOCCNC(=O)CC[C@H](NC(=O)CCCCCCCCCCCCCCCCC(=O)O)C(=O)O)NC(=O)[C@H](C)NC(=O)C(C)(C)NC(=O)[C@H](CCCNC(=N)N)NC(=O)[C@H](CO)NC(=O)[C@H](CC(=O)O)NC(=O)[C@H](CC(C)C)NC(=O)[C@](C)(Cc1ccccc1)NC(=O)[C@H](CCCCN)NC(=O)[C@H](CO)NC(=O)[C@@H](NC(=O)[C@H](CC(=O)O)NC(=O)[C@H](CO)NC(=O)[C@@H](NC(=O)[C@](C)(Cc1ccccc1)NC(=O)[C@H](CO)NC(=O)CNC(=O)[C@H](Cc1c[nH]cn1)NC(=O)C(C)(C)NC(=O)[C@@H](N)Cc1c[nH]cn1)[C@@H](C)O)C(C)C)C(C)C)C(=O)N[C@@H](C)C(=O)N[C@@H](CC(N)=O)C(=O)N[C@H](C(N)=O)[C@@H](C)O [Peptide 223] (H-H[Aib]HGS[αMeF]TSDVSK[αMeF]LDSR[Aib]AK([AEEA-AEEA-γGlu-C18 diacid])DFVQSIANT-NH2) | 63.6 | –
– | – | 0.0849 | 1.2 | 0.0511 | CC[C@H](C)[C@H](NC(=O)[C@H](Cc1c[nH]c2ccccc12)NC(=O)[C@H](CCC(N)=O)NC(=O)[C@@H](NC(=O)[C@](C)(Cc1ccccc1)NC(=O)[C@H](CC(=O)O)NC(=O)[C@H](CCCCNC(=O)COCCOCCNC(=O)COCCOCCNC(=O)CC[C@H](NC(=O)CC[C@H](NC(=O)CCCCCCCCCCCCCCCCC(=O)O)C(=O)O)C(=O)O)NC(=O)[C@H](C)NC(=O)[C@H](C)NC(=O)[C@H](CCCNC(=N)N)NC(=O)[C@H](CO)NC(=O)[C@H](CC(=O)O)NC(=O)[C@H](CC(C)C)NC(=O)[C@](C)(Cc1ccccc1)NC(=O)[C@H](CCCCN)NC(=O)[C@H](CO)NC(=O)[C@@H](NC(=O)[C@H](CC(=O)O)NC(=O)[C@H](CO)NC(=O)[C@@H](NC(=O)[C@](C)(Cc1ccccc1)NC(=O)[C@H](CO)NC(=O)CNC(=O)[C@H](Cc1c[nH]cn1)NC(=O)C(C)(C)NC(=O)[C@@H](N)Cc1c[nH]cn1)[C@@H](C)O)C(C)C)C(C)C)C(=O)N[C@@H](C)C(=O)N[C@@H](CC(N)=O)C(=O)N[C@H](C(N)=O)[C@@H](C)O [Peptide 247] (H-H[Aib]HGS[αMeF]TSDVSK[αMeF]LDSRAAK([AEEA-AEEA-γGlu-γGlu-C18 diacid])D[αMeF]VQWIANT-NH2; N-terminus assumed) | 66.9 | –
– | – | 0.00735 | 0.4 | 0.00166 | CCCCCCCCCCCCCCCCCC(=O)N[C@@H](CCC(=O)N[C@@H](CCC(=O)NCCOCCOCC(=O)NCCOCCOCC(=O)NCCCC[C@H](NC(=O)[C@H](C)NC(=O)[C@H](C)NC(=O)[C@H](CCCNC(=N)N)NC(=O)[C@H](CO)NC(=O)[C@H](CC(=O)O)NC(=O)[C@H](CC(C)C)NC(=O)[C@](C)(Cc1ccccc1)NC(=O)[C@H](CCCCN)NC(=O)[C@H](CO)NC(=O)[C@@H](NC(=O)[C@H](CC(=O)O)NC(=O)[C@H](CO)NC(=O)[C@@H](NC(=O)[C@](C)(Cc1ccccc1)NC(=O)[C@H](CO)NC(=O)CNC(=O)[C@H](Cc1c[nH]cn1)NC(=O)C(C)(C)NC(=O)[C@@H](N)Cc1c[nH]cn1)[C@@H](C)O)C(C)C)C(=O)N[C@@H](CC(=O)O)C(=O)N[C@@](C)(Cc1ccccc1)C(=O)N[C@H](C(=O)N[C@@H](CCC(N)=O)C(=O)NC(C)(C)C(=O)N[C@H](C(=O)N[C@@H](C)C(=O)N[C@@H](CC(N)=O)C(=O)N[C@H](C(N)=O)[C@@H](C)O)[C@@H](C)CC)C(C)C)C(=O)O)C(=O)O [Peptide 257] (H-H[Aib]HGS[αMeF]TSDVSK[αMeF]LDSRAAK([AEEA-AEEA-γGlu-γGlu-Stearoyl])D[αMeF]VQ[Aib]IANT-NH2) | 96.5 | 94.7
– | – | 0.0197 | 1.8 | 0.0184 | CC[C@H](C)[C@H](NC(=O)C(C)(C)NC(=O)[C@H](CCC(N)=O)NC(=O)[C@@H](NC(=O)[C@](C)(Cc1ccccc1)NC(=O)[C@H](CC(=O)O)NC(=O)[C@H](CCCCNC(=O)COCCOCCNC(=O)COCCOCCNC(=O)CC[C@H](NC(=O)CCCCCCCCCCCCCCCCC(=O)O)C(=O)O)NC(=O)[C@H](C)NC(=O)[C@H](C)NC(=O)[C@H](CCCNC(=N)N)NC(=O)[C@H](CO)NC(=O)[C@H](CC(=O)O)NC(=O)[C@H](CC(C)C)NC(=O)[C@](C)(Cc1ccccc1)NC(=O)[C@H](CCCCN)NC(=O)[C@H](CO)NC(=O)[C@@H](NC(=O)[C@H](CC(=O)O)NC(=O)[C@H](CO)NC(=O)[C@@H](NC(=O)[C@](C)(Cc1ccccc1)NC(=O)[C@H](CO)NC(=O)CNC(=O)[C@H](Cc1c[nH]cn1)NC(=O)C(C)(C)NC(=O)[C@@H](N)Cc1c[nH]cn1)[C@@H](C)O)C(C)C)C(C)C)C(=O)N[C@@H](C)C(=O)N[C@@H](CCC(=O)O)C(=O)N[C@H](C(N)=O)[C@@H](C)O [Peptide 300] (H-H[Aib]HGS[αMeF]TSDVSK[αMeF]LDSRAAK([AEEA-AEEA-γGlu-C18 diacid])D[αMeF]VQ[Aib]IAET-NH2) | 45.2 | –

From patent US20250353891A1 (MEDIMMUNE LIMITED, priority 2022, published 2025)
